For this test, the target named is T1, mAChR M1 (UniProt P08482).
T1 sequence (P08482 1-460): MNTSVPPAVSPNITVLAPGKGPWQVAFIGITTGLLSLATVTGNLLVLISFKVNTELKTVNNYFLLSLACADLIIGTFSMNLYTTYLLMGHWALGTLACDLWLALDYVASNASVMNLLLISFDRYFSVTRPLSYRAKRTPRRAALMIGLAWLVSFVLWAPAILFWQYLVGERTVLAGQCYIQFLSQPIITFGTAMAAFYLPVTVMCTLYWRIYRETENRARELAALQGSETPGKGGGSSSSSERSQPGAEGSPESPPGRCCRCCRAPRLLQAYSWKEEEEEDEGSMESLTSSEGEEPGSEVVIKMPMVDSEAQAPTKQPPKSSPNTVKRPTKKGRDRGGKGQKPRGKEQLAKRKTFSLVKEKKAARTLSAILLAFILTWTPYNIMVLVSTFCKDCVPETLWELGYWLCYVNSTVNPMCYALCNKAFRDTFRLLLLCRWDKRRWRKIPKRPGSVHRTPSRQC
Nature of the test: mAChR M1 cell-based functional assay (calcium mobilization, Fluo-4, FDSS). Particulars: for EC50: positive allosteric modulation of EC20 acetylcholine response, CHO-K1 cells expressing mAChR M1, read-out: Potency (EC50).

The structures appear in SMILES notation. Bounds are passed on as bounds.

For the molecule `Cc1cc(NC(=O)CS(=O)(=O)c2cn(Cc3cccc(Br)c3)c3cc(F)cc(F)c23)no1` [compound 30, 2-((1-(3-bromobenzyl)-4,6-3-yl)sulfonyl)-N-(5-methylisoxazol-3-yl)acetamide], the EC50 worked out at 5.37 µM. For the same molecule, under “maximal calcium flux response from curve fit or response at 30 μM compound, as % of the EC80 ACh response”, the “Efficacy (% ACh maximum at 30 μM)” value is given as 103%. Take `Cc1cc(NC(=O)CS(=O)(=O)c2cn(Cc3ccc(Cl)c(Cl)c3)c3ccccc23)no1` [compound 55, 2-{1-[(3,4-dichlorophenyl)methyl]-1H-indole-3-sulfonyl}-N-(5-methyl-1,2-oxazol-3-yl)acetamide]: the EC50 is more than 10 µM. The same measure, in the same setting: the figure for `Cc1cc(NC(=O)C(C)S(=O)(=O)c2cn(Cc3cc(Br)cc(Br)c3)c3ccccc23)no1` (centres unmarked) [compound 73, 2-{1-[(3,5-dibromophenyl)methyl]-1H-indole-3-sulfonyl}-N-(5-methyl-1,2-oxazol-3-yl)propanamide] is more than 10 µM; for `Cc1cc(NC(=O)C(Cc2ccccc2F)S(=O)(=O)c2cn(Cc3ccccc3F)c3ccccc23)no1` (centres unmarked) [compound 66, 3-(2-fluorophenyl)-2-{1-[(2-fluorophenyl)methyl]-1H-indole-3-sulfonyl}-N-(5-methyl-1,2-oxazol-3-yl)propanamide] it is more than 10 µM.

One may read the EC50 as the concentration that produces a half-maximal response.

For the origin of these results see patent US8772509B2, “Indole compounds as positive allosteric modulators of the muscarinic receptor” (Vanderbilt University, priority 2010, dated 2014).
